Test results from patent publication US11008551B2, “Method to increase the infectivity of virus particles” (The Trustees of Princeton University, priority 2011, dated 2021).

Tests used:
[1] = test system: HCMV strain AD169 virions; experiment: Infectivity of gradient purified virions treated with MCβD and/or cholesterol; type: cell-based, human cytomegalovirus (HCMV)
Experimental: Due to the ability to sequester cholesterol in its hydrophobic pocket, methyl-ß-cyclodextrin (MCβD) removes cholesterol from membranes (Christian, Haynes et al. 1997). Thus, in order to directly test the role of virion envelope cholesterol in HCMV infection, purified virions were treated with various concentrations of MCβD to deplete cholesterol.
(§1) Gradient purified HCMV strain AD169 virions were either mock treated or treated with increasing concentrations of MCβD for 30 min at 37° C. MCβD (50 mM) treated virus was incubated in varying concentrations of cholesterol for 30 min at 37° C. Virus (no MCβD treatment) was incubated in varying concentrations of cholesterol for 30 min at 37° C. In all experiments, infectivity (FIG. 5, left panels) and cholesterol content (FIG. 5, right panels) were determined for the treated samples. Infectivity of untreated virus was set to 100%. Virus cholesterol content was determined using the amplexred (Invitrogen) specrofluorometric assay.
(§2) To determine whether the effect of MCβD could be rescued (and is thus reversible), and moreover, to determine if the loss of infectivity was due to cholesterol depletion, exogenous cholesterol was used to replenish the envelopes of MCβD-treated virions by incubating the virus particles with various amounts of free cholesterol.
(§3) To determine if virus infectivity could be increased by increasing virion cholesterol content alone, gradient purified HCMV virions were incubated with increasing concentrations of cholesterol then gradient purified for a second time.

[2] = test system: HCMV; experiment: Cholesterol supplementation of serum-starved antibody-treated MRC5 cells, cell-free virus by TCID50; type: cell-based, human cytomegalovirus (HCMV); conditions: serum-starved MRC5 cells also treated with LRP1-specific antibody, 0.1 PFU/cell, 96 hpi
Experimental: (§4) In a second experiment, cells were serum starved for 48 hours then treated with indicated antibodies. 1 hour post antibody treatment, serum-starved, confluent MRC5 cells were treated with various concentrations of cholesterol (+fatty acid-free BSA carrier) for 1 hour then infected at a multiplicity of 0.1 PFU/cell. At 96 hpi, released virus was used to infect new cells. “N” indicates no added cholesterol. Cell-free virus was quantified by a TCID50 assay. Data represents the mean and standard deviation from three independent experiments with three replicates each.

[3] = test system: HCMV strain AD169 virions; experiment: Virus cholesterol content after MCβD and/or cholesterol treatment, amplex red assay; design: species or system human cytomegalovirus (HCMV)
Experimental: as §1
To confirm that MCβD treatment depleted virus of envelope cholesterol, the cholesterol content of MCβD-depleted virus was determined (FIG. 5A, right).
as §2, §3

[4] = test system: HCMV strain AD169; experiment: Acid bypass assay of MCβD-treated virus, IE1 expression at 24 hpi; type: cell-based, human cytomegalovirus (HCMV); conditions: MCβD 50 mM, 3 pfu/cell, pH 4.7 vs 7.4, 24 hpi
Experimental: It is known that infection of host cells by enveloped viruses relies on the fusion of the viral envelope with either an endosomal membrane or the plasma membrane of the cell. Therefore, experiments were designed to test whether infectivity of MCβD-treated virus can be restored by using an “acid bypass assay” (Mercer and Helenius 2008) to circumvent the normal membrane fusion process during virus entry.
Cells were infected with MCβD (50 mM)-treated or mock-treated HCMV strain AD169 at a multiplicity of 3 pfu/cell, allowed to sit at 4° C. for 30 min to allow virus binding, then treated with buffer at a neutral (7.4) or acidic (4.7) pH for 3 min, washed with PBS, and examined for IE1 expression 24 hours later.
HCMV particles, either treated with MCβD or left untreated, were bound to cells at 4° C., then incubated in a low pH buffer (pH 4.7) to artificially induce the fusion event, thus allowing fusion-deficient viruses to enter the cell and replicate. A neutral pH buffer was used as a control. Virus replication after acid bypass was visualized by IE1 expression at 24 hpi (FIG. 6).

[5] = test system: HCMV; experiment: Mevastatin treatment of infected MRC5 cells, released virus quantified by TCID50; type: cell-based, human cytomegalovirus (HCMV)
Experimental: In a first experiment, MRC5 cells were left untreated, treated with Mevastatin or mock treated. At 90 minutes post Mevastatin treatment, cells were treated with antibody to LRP1 or tubulin or left untreated. 1 hour post Mevastatin treatment, cells were infected at a multiplicity of 0.1 PFU/cell. At 96 hpi, released virus was used to infect new cells.
as §4

[6] = MCβD (50 mM) treated virus incubated with varying cholesterol, 30 min at 37° C.
[7] = virus without MCβD treatment incubated with increasing cholesterol
[8] = virions treated with increasing MCβD, 30 min at 37° C.

CC(C)CCC[C@@H](C)[C@H]1CC[C@H]2[C@@H]3CC=C4C[C@@H](O)CC[C@]4(C)[C@H]3CC[C@]12C [cholesterol]
HCMV infectivity of MCβD-treated virions [1, 6]: partially restored
virus infectivity [1, 7]: increased
production of HCMV infectivity [2]: substantially enhanced
envelope cholesterol content of MCβD-treated virions [3, 6]: partially restored
overall cholesterol content of virus [3, 7]: increased

methyl-ß-cyclodextrin [MCβD]
HCMV infectivity [1, 8]: dose-dependent inhibition
depletion of virion cholesterol ([3]; 50 mM MCβD): 90%
virus cholesterol content [3, 8]: dose-dependent decrease
ability of treated virus to enter the cell and express IE1 protein after acid bypass [4]: dramatic difference

CC[C@H](C)C(=O)O[C@H]1CCC=C2C=C[C@H](C)[C@H](CC[C@@H]3C[C@@H](O)CC(=O)O3)[C@H]21 [Mevastatin]
reversal of the increased infectivity caused by inhibition of LRP1 activity ([5]; MRC5 cells also treated with LRP1 antibody): to a limited extent
production of infectivity ([5]; MRC5 cells, 0.1 PFU/cell, 96 hpi, Mevastatin): inhibited the production of infectivity in a dose-dependent manner
